According to patent US20120010075A1 (priority 2009, published 2012):
Like-named read-outs stand apart in the source and are kept apart here.

Legend:
[1] = test system: Colletotrichum lagenarium; experiment: Compound 16 and copper materials against cucumber anthracnose (Example 37, Tables 21-24); assay type: in vivo, Colletotrichum lagenarium on cucumber (Bush Pickle)
Phytophthora infestans [2] = assay type: in vivo, Phytophthora infestans on tomato (Outdoor Girl)
Alternaria solani = experiment: Compound 16 and copper materials against tomato early blight (Example 37, Tables 17-20); assay type: in vivo, Alternaria solani on tomato (Outdoor Girl)
[3] = test system: Leptosphaeria nodorum (LEPTNO); experiment: Isolated metal-hydrazone complexes versus parent hydrazones, in vitro, Leptosphaeria nodorum (Example 31, Table 7); assay type: cell-based; details: Parastagonospora nodorum; 0.1 μg/mL; copper-minus medium; 72 h
Phytophthora infestans [4] = assay type: in vivo, Phytophthora infestans on tomato; details: hydrazone 50 ppm + 50 μM CuCl2.2H2O, applied 24 h before inoculation, assessed 7 days after inoculation, tomato
[5] = test system: Leptosphaeria nodorum (glume blotch of wheat); experiment: Cu-hydrazone complexes versus parent hydrazones against glume blotch of wheat (Example 32, Table 8); assay type: in vivo, Leptosphaeria nodorum on wheat (cultivar Yuma); details: Parastagonospora nodorum, 200 ppm spray, inoculated after 24 h
[6] = test system: Leptosphaeria nodorum (LEPTNO); experiment: In vitro fungitoxicity of hydrazones with and without copper towards Leptosphaeria nodorum (Example 26); assay type: cell-based; details: 72 h at 25° C.; for LEPTNO % Inhn. Plus Copper Observed: copper-plus medium (CuCl2.2H2O)
Phytophthora capsici = experiment: In vitro fungitoxicity of hydrazones with and without copper towards Phytophthora capsici (Example 28, Table 3); assay type: cell-based; details: 48 h; for % Inhn Plus copper Observed: copper-plus AS medium (CuCl2, 50 μM)
[7] = test system: Septoria tritici isolate USA-184; experiment: In vitro fungitoxicity of hydrazones with and without copper towards Septoria tritici (Example 30, Table 5); assay type: cell-based; details: Zymoseptoria tritici, 0.05 μg/mL
Ustilago maydis = experiment: In vitro fungitoxicity of hydrazones with and without copper towards Ustilago maydis (Example 29, Table 4); assay type: cell-based; details: 1 μg/mL, 48 h
[8] = Parastagonospora nodorum, 72 h, compound 0.05 μg/mL, copper-minus medium, read-out: LEPTNO % Inhn. Minus Copper Observed
[9] = Phytophthora capsici, 0.039 μg/mL, copper-minus AS medium, read-out: % Inhn Minus copper Observed

SMILES: O=C(N/N=C/c1cc(Cl)cc(Cl)c1O)c1ccccc1 [Compound 16]
- % Control of Cucumber Anthracnose ([1]; hydrazone 10 μM alone): 10%
- % Control of Cucumber Anthracnose ([1]; hydrazone 50 μM alone): 33.8%
- % Control of Cucumber Anthracnose ([1]; hydrazone 200 μM alone): 63.8%
- % Control of Cucumber Anthracnose ([1]; hydrazone 400 μM alone): 70.8%
- % Control of Tomato Late Blight (Phytophthora infestans [2]; hydrazone 10 μM alone): 1.5%
- % Control of Tomato Late Blight (Phytophthora infestans [2]; hydrazone 50 μM alone): 11.3%
- % Control of Tomato Late Blight (Phytophthora infestans [2]; hydrazone 200 μM alone): 21.4%
- % Control of Tomato Late Blight (Phytophthora infestans [2]; hydrazone 400 μM alone): 25.7%
- % Control of Tomato Early Blight (Alternaria solani; hydrazone 10 μM alone): 3.9%
- % Control of Tomato Early Blight (Alternaria solani; hydrazone 50 μM alone): 8%
- % Control of Tomato Early Blight (Alternaria solani; hydrazone 200 μM alone): 28.4%
- % Control of Tomato Early Blight (Alternaria solani; hydrazone 400 μM alone): 32.4%

SMILES: O=C(N/N=C/c1cc(Cl)cc(Cl)c1O)c1ccc(OC(F)(F)F)cc1 [Example 100]
- inhibition at 0.1 µg/mL [3]: 24.7%
- TLB % Control (Phytophthora infestans [4]): 74.2%
- pest or weed control at 200 ppm [5]: 0%
- inhibition of growth at 0.05 µg/mL [6, 8]: 8.2%
- LEPTNO % Inhn. Plus Copper Observed ([6]; compound 0.05 μg/mL): 97.0%
- % Inhn Plus copper Observed (Phytophthora capsici; 0.039 μg/mL): 88.8%
- inhibition of growth at 0.039 µg/mL (Phytophthora capsici; [9]): 10%
- melting point: 220 to 229 °C

SMILES: Cc1ccccc1C(=O)N/N=C/c1cc(Cl)cc(Cl)c1O [Example 77]
- inhibition at 0.1 µg/mL [3]: 10.6%
- TLB % Control (Phytophthora infestans [4]): 55.5%
- pest or weed control at 200 ppm [5]: 0%
- inhibition of growth at 0.05 µg/mL [6, 8]: 7.6%
- LEPTNO % Inhn. Plus Copper Observed ([6]; compound 0.05 μg/mL): 96.1%

SMILES: O=C(N/N=C/c1cc(Cl)cc(Cl)c1O)c1ccccc1[N+](=O)[O-] [Example 96]
- inhibition at 0.1 µg/mL [3]: 10.7%
- TLB % Control (Phytophthora infestans [4]): 78.2%
- pest or weed control at 200 ppm [5]: 0%
- inhibition of growth at 0.05 µg/mL [6, 8]: 1.2%
- LEPTNO % Inhn. Plus Copper Observed ([6]; compound 0.05 μg/mL): 93.6%
- % Inhn Plus copper Observed (Phytophthora capsici; 0.039 μg/mL): 91.9%
- inhibition of growth at 0.039 µg/mL (Phytophthora capsici; [9]): 55.2%

SMILES: O=C(N/N=C/c1cc(Cl)cc(Cl)c1O)c1cc(Cl)ccc1Cl [Example 83]
- inhibition at 0.1 µg/mL [3]: 27.9%
- TLB % Control (Phytophthora infestans [4]): 60.6%
- pest or weed control at 200 ppm [5]: 38%
- inhibition of growth at 0.05 µg/mL [6, 8]: 5.9%
- LEPTNO % Inhn. Plus Copper Observed ([6]; compound 0.05 μg/mL): 98.0%
- % Inhn Plus copper Observed (Phytophthora capsici; 0.039 μg/mL): 96.2%
- inhibition of growth at 0.039 µg/mL (Phytophthora capsici; [9]): 27.9%
- melting point: 189 to 191 °C

SMILES: O=C(N/N=C/c1cc(Cl)cc(Cl)c1O)c1ccccc1O [Example 69]
- inhibition at 0.05 µg/mL ([7]; Colby formula, CuCl2, read-out: % Inhibition Plus copper Predicted): 0%
- inhibition at 0.05 µg/mL ([7]; copper-minus medium, 90 h, read-out: % Inhibition Minus copper Observed): 0%
- inhibition at 0.05 µg/mL ([7]; copper-plus medium CuCl2, 90 h, read-out: % Inhibition Plus copper Observed): 96.7%
- inhibition at 0.1 µg/mL [3]: 32.4%
- TLB % Control (Phytophthora infestans [4]): 90.8%
- pest or weed control at 200 ppm [5]: 25%
- inhibition of growth at 0.05 µg/mL [6, 8]: 19.3%
- LEPTNO % Inhn. Plus Copper Observed ([6]; compound 0.05 μg/mL): 96.9%
- % Inhn Plus copper Observed (Phytophthora capsici; 0.050 μg/mL): 87.6%
- inhibition of growth at 0.05 µg/mL (Phytophthora capsici; Phytophthora capsici, 0.050 μg/mL, copper-minus AS medium, read-out: % Inhn Minus copper Observed): 0%
- % Inhn. Plus copper Observed (Ustilago maydis; copper-plus medium (CuCl2, 10 μM)): 96.2%
- inhibition of growth at 1 µg/mL (Ustilago maydis; Mycosarcoma maydis, copper-minus medium, read-out: % Inhn. Minus copper Observed): 0%

SMILES: O=C(N/N=C/c1cc(Cl)cc(Cl)c1O)c1cccc(Cl)c1 [Example 70]
- inhibition at 0.1 µg/mL [3]: 29.4%
- TLB % Control (Phytophthora infestans [4]): 93.1%
- pest or weed control at 200 ppm [5]: 0%
- inhibition of growth at 0.05 µg/mL [6, 8]: 19.6%
- LEPTNO % Inhn. Plus Copper Observed ([6]; compound 0.05 μg/mL): 98.2%

SMILES: O.O.[Cl][Cu][Cl] [CuCl2•2H2O]
- % Control of Cucumber Anthracnose ([1]; copper material 10 μM alone): 9.6%
- % Control of Cucumber Anthracnose ([1]; copper material 50 μM alone): 1.4%
- % Control of Cucumber Anthracnose ([1]; copper material 200 μM alone): 37.2%
- % Control of Cucumber Anthracnose ([1]; copper material 400 μM alone): 76.2%
- % Control of Cucumber Anthracnose ([1]; copper material 800 μM alone): 90.0%
- % Control of Tomato Early Blight (Alternaria solani; copper material 10 μM alone): 0.0%
- % Control of Tomato Early Blight (Alternaria solani; copper material 50 μM alone): 0.0%
- % Control of Tomato Early Blight (Alternaria solani; copper material 200 μM alone): 50.4%
- % Control of Tomato Early Blight (Alternaria solani; copper material 400 μM alone): 72.5%
- % Control of Tomato Early Blight (Alternaria solani; copper material 800 μM alone): 83.3%

SMILES: O=C(N/N=C/c1cc(Cl)cc(Cl)c1O)c1ccccc1Br [Example 84]
- inhibition at 0.1 µg/mL [3]: 6.7%
- TLB % Control (Phytophthora infestans [4]): 83.6%
- pest or weed control at 200 ppm [5]: 37%
- inhibition of growth at 0.05 µg/mL [6, 8]: 5.6%
- LEPTNO % Inhn. Plus Copper Observed ([6]; compound 0.05 μg/mL): 95.5%
- % Inhn Plus copper Observed (Phytophthora capsici; 0.039 μg/mL): 95.0%
- inhibition of growth at 0.039 µg/mL (Phytophthora capsici; [9]): 47.5%

SMILES: O=C(N/N=C/c1cc(Cl)cc(Cl)c1O)c1ccc([N+](=O)[O-])cc1 [Example 76]
- inhibition at 0.1 µg/mL [3]: 92.8%
- TLB % Control (Phytophthora infestans [4]): 89.8%
- pest or weed control at 200 ppm [5]: 0%
- inhibition of growth at 0.05 µg/mL [6, 8]: 0%
- LEPTNO % Inhn. Plus Copper Observed ([6]; compound 0.05 μg/mL): 97.0%

SMILES: O=C(N/N=C/c1cc(Cl)cc(Cl)c1O)c1c(Cl)cccc1Cl [Example 43]
- inhibition at 0.1 µg/mL [3]: 3.6%
- TLB % Control (Phytophthora infestans [4]): 68.8%
- pest or weed control at 200 ppm [5]: 0%
- inhibition of growth at 0.156 µg/mL ([6]; Parastagonospora nodorum, 72 h, compound 0.156 μg/mL, copper-minus medium, read-out: LEPTNO % Inhn. Minus Copper Observed): 14.2%
- LEPTNO % Inhn. Plus Copper Observed ([6]; compound 0.156 μg/mL): 75.4%
- % Inhn Plus copper Observed (Phytophthora capsici; 0.039 μg/mL): 90.3%
- inhibition of growth at 0.039 µg/mL (Phytophthora capsici; [9]): 54.2%
- melting point: 250 to 252 °C

SMILES: O.O.O.O.O.O=S(=O)([O-])[O-].[Cu+2] [CuSO4•5H2O]
- % Control of Cucumber Anthracnose ([1]; copper material 10 μM alone): 1.4%
- % Control of Cucumber Anthracnose ([1]; copper material 50 μM alone): 0.0%
- % Control of Cucumber Anthracnose ([1]; copper material 200 μM alone): 61.3%
- % Control of Cucumber Anthracnose ([1]; copper material 400 μM alone): 75.7%
- % Control of Cucumber Anthracnose ([1]; copper material 800 μM alone): 87.1%
- % Control of Tomato Early Blight (Alternaria solani; copper material 10 μM alone): 0.0%
- % Control of Tomato Early Blight (Alternaria solani; copper material 50 μM alone): 7.1%
- % Control of Tomato Early Blight (Alternaria solani; copper material 200 μM alone): 54.4%
- % Control of Tomato Early Blight (Alternaria solani; copper material 400 μM alone): 64.1%
- % Control of Tomato Early Blight (Alternaria solani; copper material 800 μM alone): 71.6%
